Active and inactive are the calls of the source. The rule behind the calls is not given here.
Assays:
Staphylococcus cohnii [1] = test: Antibacterial activity against Staphylococcus cohnii at 100 to 200 ug/ml after 24 hrs by microwell dilution assay; type: functional, organism-based
Staphylococcus aureus [2] = test: Antibacterial activity against Staphylococcus aureus at 100 to 200 ug/ml after 24 hrs by microwell dilution assay; type: functional, organism-based
Staphylococcus cohnii [3] = test: Antibacterial activity against Staphylococcus cohnii at 10 mg/ml after 24 hrs by disc diffusion method; type: functional
Hepacivirus hominis = test: Inhibition of HCV N-terminal His-tagged NS5B RNA dependent RNA polymerase expressed in Escherichia coli DH5alpha using poly rA/U12 as primer at 200 uM after 60 mins by liquid scintillation counting
Staphylococcus aureus [4] = test: Antibacterial activity against Staphylococcus aureus at 10 mg/ml after 24 hrs by disc diffusion method; type: functional
Micrococcus luteus [5] = test: Antibacterial activity against Micrococcus luteus at 100 to 200 ug/ml after 24 hrs by microwell dilution assay; type: functional, organism-based
Candida tropicalis = test: Antifungal activity against Candida tropicalis at 10 mg/ml after 48 hrs by disc diffusion method; type: functional, organism-based
Micrococcus luteus [6] = test: Antibacterial activity against Micrococcus luteus at 10 mg/ml after 24 hrs by disc diffusion method; type: functional, organism-based
Pseudomonas aeruginosa [7] = test: Antibacterial activity against Pseudomonas aeruginosa at 6.25 to 200 ug/ml after 24 hrs by microwell dilution method; type: functional, organism-based
Candida parapsilosis = test: Antifungal activity against Candida parapsilosis at 10 mg/ml after 48 hrs by disc diffusion method; type: functional, organism-based
Staphylococcus cohnii [8] = test: Antibacterial activity against Staphylococcus cohnii at 6.25 to 200 ug/ml after 24 hrs by microwell dilution assay; type: functional, organism-based
[9] = test system: Schwanniomyces occidentalis; test: Antifungal activity against Schwanniomyces occidentalis at 10 mg/ml after 48 hrs by disc diffusion method; type: functional, organism-based
Klebsiella aerogenes [10] = test: Antibacterial activity against Enterobacter aerogenes at 6.25 to 200 ug/ml after 24 hrs by microwell dilution method; type: functional, organism-based
Aspergillus = test: Antifungal activity against Aspergillus at 10 mg/ml after 72 hrs by disc diffusion method; type: functional, organism-based
Escherichia coli [11] = test: Antibacterial activity against Escherichia coli at 10 mg/ml after 24 hrs by disc diffusion method; type: functional, organism-based
Pichia membranifaciens = test: Antifungal activity against Pichia membranifaciens at 10 mg/ml after 48 hrs by disc diffusion method; type: functional, organism-based
Micrococcus lylae [12] = test: Antibacterial activity against Micrococcus lylae at 6.25 to 200 ug/ml after 24 hrs by microwell dilution method; type: functional, organism-based
[13] = test system: Acinetobacter radioresistens; test: Antibacterial activity against Acinetobacter radioresistens at 10 mg/ml after 24 hrs by disc diffusion method; type: functional, organism-based
Proteus vulgaris [14] = test: Antibacterial activity against Proteus vulgaris at 6.25 to 200 ug/ml after 24 hrs by microwell dilution method; type: functional, organism-based
Photorhabdus luminescens [15] = test: Antibacterial activity against Photorhabdus luminescens at 6.25 to 200 ug/ml after 24 hrs by microwell dilution method; type: functional, organism-based
Nakaseomyces glabratus = test: Antifungal activity against Candida glabrata at 10 mg/ml after 48 hrs by disc diffusion method; type: functional, organism-based
[16] = test system: Acinetobacter radioresistens; test: Antibacterial activity against Acinetobacter radioresistens at 6.25 to 200 ug/ml after 24 hrs by microwell dilution method; type: functional, organism-based
Photorhabdus luminescens [17] = test: Antibacterial activity against Photorhabdus luminescens at 10 mg/ml after 24 hrs by disc diffusion method; type: functional, organism-based
Kluyveromyces marxianus = test: Antifungal activity against Kluyveromyces marxianus at 10 mg/ml after 48 hrs by disc diffusion method; type: functional, organism-based
T47D = test: Cytotoxicity against human T47D assessed as cell growth at 10 uM after 48 hrs by SRB assay; type: functional; settings: read-out: Activity
Candida albicans = test: Antifungal activity against Candida albicans at 10 mg/ml after 48 hrs by disc diffusion method; type: functional, organism-based
Salmonella paratyphi [18] = test: Antibacterial activity against Salmonella paratyphi at 10 mg/ml after 24 hrs by disc diffusion method; type: functional, organism-based; settings: Salmonella enterica subsp. enterica serovar Paratyphi A
Micrococcus luteus [19] = test: Antibacterial activity against Micrococcus luteus at 6.25 to 200 ug/ml after 24 hrs by microwell dilution method; type: functional, organism-based
Proteus vulgaris [20] = test: Antibacterial activity against Proteus vulgaris at 10 mg/ml after 24 hrs by disc diffusion method; type: functional, organism-based
Escherichia coli [21] = test: Antibacterial activity against Escherichia coli at 6.25 to 200 ug/ml after 24 hrs by microwell dilution method; type: functional, organism-based
Salmonella paratyphi [22] = test: Antibacterial activity against Salmonella paratyphi at 6.25 to 200 ug/ml after 24 hrs by microwell dilution method; type: functional, organism-based; settings: Salmonella enterica subsp. enterica serovar Paratyphi A
Micrococcus lylae [23] = test: Antibacterial activity against Micrococcus lylae at 10 mg/ml after 24 hrs by disc diffusion method; type: functional, organism-based
Staphylococcus aureus [24] = test: Antibacterial activity against Staphylococcus aureus at 6.25 to 200 ug/ml after 24 hrs by microwell dilution assay; type: functional, organism-based
Klebsiella aerogenes [25] = test: Antibacterial activity against Enterobacter aerogenes at 10 mg/ml after 24 hrs by disc diffusion method; type: functional, organism-based
Pseudomonas aeruginosa [26] = test: Antibacterial activity against Pseudomonas aeruginosa at 10 mg/ml after 24 hrs by disc diffusion method; type: functional, organism-based

Row | SMILES | inhibition (Hepacivirus hominis) [%] | Activity (Candida tropicalis) | Activity (Micrococcus luteus [6]) | Activity (Pseudomonas aeruginosa [7]) | Activity (Candida parapsilosis) | Activity (Staphylococcus cohnii [8]) | Activity [9] | Activity (Klebsiella aerogenes [10]) | Activity (Aspergillus) | Activity (Escherichia coli [11]) | Activity (Pichia membranifaciens) | Activity (Staphylococcus cohnii [3]) | Activity (Micrococcus lylae [12]) | Activity [13] | Activity (Proteus vulgaris [14]) | Activity (Photorhabdus luminescens [15]) | Activity (Nakaseomyces glabratus) | Activity [16] | Activity (Staphylococcus aureus [4]) | Activity (Photorhabdus luminescens [17]) | also measured
1 | CC(C(=O)NN1C(=O)CSC1c1ccc([N+](=O)[O-])o1)c1ccc(-c2ccccc2)c(F)c1 (stereo unspecified) | 8 |  |  |  |  |  |  |  |  |  |  |  |  |  |  |  |  |  |  |  | Activity (Staphylococcus cohnii [1]): Active; Activity (Staphylococcus aureus [2]): Active; zone of inhibition at 10000 µg/mL (Staphylococcus cohnii [3]; read-out: DIZ): 10 mm; zone of inhibition at 10000 µg/mL (Staphylococcus aureus [4]; read-out: DIZ): 10 mm; Activity (Micrococcus luteus [5]): Active
2 | CC(C(=O)N/N=C/c1c(F)cccc1F)c1ccc(-c2ccccc2)c(F)c1 (stereo unspecified) | 8 | inactive | inactive | inactive | inactive | inactive | inactive | inactive | inactive | inactive | inactive | inactive | inactive | inactive | inactive | inactive | inactive | inactive | inactive | inactive | Activity (Kluyveromyces marxianus): inactive; growth at 10 µM (T47D): 55.3%; Activity (Candida albicans): inactive; Activity (Salmonella paratyphi [18]): inactive; Activity (Micrococcus luteus [19]): inactive; Activity (Proteus vulgaris [20]): inactive; Activity (Escherichia coli [21]): inactive; Activity (Salmonella paratyphi [22]): inactive; Activity (Micrococcus lylae [23]): inactive; Activity (Staphylococcus aureus [24]): inactive; Activity (Klebsiella aerogenes [25]): inactive; Activity (Pseudomonas aeruginosa [26]): inactive
3 | CC(C(=O)NN1C(=O)CSC1c1ccccc1F)c1ccc(-c2ccccc2)c(F)c1 (stereo unspecified) | 8 | inactive | inactive | inactive | inactive | inactive | inactive | inactive | inactive | inactive | inactive | inactive | inactive | inactive | inactive | inactive | inactive | inactive | inactive | inactive | Activity (Kluyveromyces marxianus): inactive; Activity (Candida albicans): inactive; Activity (Salmonella paratyphi [18]): inactive; Activity (Micrococcus luteus [19]): inactive; Activity (Proteus vulgaris [20]): inactive; Activity (Escherichia coli [21]): inactive; Activity (Salmonella paratyphi [22]): inactive; Activity (Micrococcus lylae [23]): inactive; Activity (Staphylococcus aureus [24]): inactive; Activity (Klebsiella aerogenes [25]): inactive; Activity (Pseudomonas aeruginosa [26]): inactive
4 | CC(C(=O)NNC(=S)NC1CCCCC1)c1ccc(-c2ccccc2)c(F)c1 (stereo unspecified) | 8 | inactive | inactive | inactive | inactive | inactive | inactive | inactive | inactive | inactive | inactive | inactive | inactive | inactive | inactive | inactive | inactive | inactive | inactive | inactive | Activity (Kluyveromyces marxianus): inactive; Activity (Candida albicans): inactive; Activity (Salmonella paratyphi [18]): inactive; Activity (Micrococcus luteus [19]): inactive; Activity (Proteus vulgaris [20]): inactive; Activity (Escherichia coli [21]): inactive; Activity (Salmonella paratyphi [22]): inactive; Activity (Micrococcus lylae [23]): inactive; Activity (Staphylococcus aureus [24]): inactive; Activity (Klebsiella aerogenes [25]): inactive; Activity (Pseudomonas aeruginosa [26]): inactive
5 | CC(C(=O)NN1C(=O)CSC1c1cccc(F)c1)c1ccc(-c2ccccc2)c(F)c1 (stereo unspecified) | 8 | inactive | inactive | inactive | inactive | inactive | inactive | inactive | inactive | inactive | inactive | inactive | inactive | inactive | inactive | inactive | inactive | inactive | inactive | inactive | Activity (Kluyveromyces marxianus): inactive; Activity (Candida albicans): inactive; Activity (Salmonella paratyphi [18]): inactive; Activity (Micrococcus luteus [19]): inactive; Activity (Proteus vulgaris [20]): inactive; Activity (Escherichia coli [21]): inactive; Activity (Salmonella paratyphi [22]): inactive; Activity (Micrococcus lylae [23]): inactive; Activity (Staphylococcus aureus [24]): inactive; Activity (Klebsiella aerogenes [25]): inactive; Activity (Pseudomonas aeruginosa [26]): inactive

From ChEMBL document CHEMBL3046898, “Synthesis and characterization of flurbiprofen hydrazide derivatives as potential anti-HCV, anticancer and antimicrobial agents” (2013)
